Assay results published in article PMC8145596, “Novel Chemically Modified Curcumin (CMC) Derivatives Inhibit Tyrosinase Activity and Melanin Synthesis in B16F10 Mouse Melanoma Cells” (Biomolecules, 2021).

Tests used:
MTS cell viability assay = format: cell-based, mouse; settings: mouse, B16F10 mouse melanoma cells, 48 h, B16F10
Procedure: B16F10 mouse melanoma cells (CRL-6475™) were obtained from American Type Culture Collection (ATCC, Manassas, VA, USA) and cultured using Dulbecco’s Modified Eagle Medium (DMEM) supplemented with 10% heat-inactivated fetal bovine serum (HI-FBS) and 1% antibiotics (penicillin-streptomycin) in a humidified incubator with 95% air—5% CO2 at 37 °C. In order to test the four CMCs (CMC2.14, CMC2.24, CMC2.5 and CMC2.23) to that of PC, for their effects on melanin content, we first screened them for cytotoxicity using a tetrazolium assay with MTS (Promega CellTiter Aqueous One). Briefly, B16F10 cells were seeded at 4 × 10^3 cells/well in a 96-well plate for 24 h. The compounds were diluted using culture medium to yield a final DMSO in all groups of 0.16% and added to the cell monolayers in wells after 24 h. Control was treated with 0.16% DMSO. At the end of 48 h, the medium was aspirated and replaced by 100 μL of fresh medium. 20 μL of MTS reagent was then added, and the plate was incubated at 37 °C for 40 min. At this point, the absorbance of 100 μL aliquots was read at 490 nm using a microplate reader. Cell viability was calculated from the absorbance values relative to control groups and expressed in %.

[1] = test system: MNT-1 human melanoma cells; assay: Melanin content assay in MNT-1 cells; format: cell-based; settings: 48 h; CMC2.24 at 20 µM; preliminary evaluation
Procedure: (§1) II. Experiments in MNT-1 human melanoma cells
(§2) MNT-1 cells (kindly provided by Dr. Michael Marks, University of Pennsylvania) were cultured using DMEM supplemented with 1 % MEM (minimum essential medium), 18 % HI-FBS, 10 % AIM-V medium (Gibco) and 1 % antibiotic mixture.
(§3) MNT-1 human melanoma cells (2 × 10^4 cells/ well) were seeded in a 96-well plate and cultured for 96 h. After this, the test compounds were added in complete medium and cultures were maintained for 48 h, followed by conducting the MTS assay to detect cytotoxicity similar to methods reports in main text. The results were expressed as % normalized to untreated control group.
(§4) MNT-1 human melanoma cells were seeded at 2.2 × 10^5 cells/well in 12-well plates and incubated for 24 hours. […] Briefly, the absorbance of melanin was measured at 475 nm and was normalized to the total protein contents and reported as relative melanin levels as a % of control.
(§5) Figure S3: Viability of MNT-1 cells treated with A) PC, CMC2.14 and CMC2.5 and B) CMC2.23 and CMC2.24 for a duration of 48 h evaluated by MTS assay; Data for A)-B) are mean ± SD of 3-4 determinations; C) Melanin content in cultures of MNT-1 cells treated for 48 h with different concentrations of PC and CMCs, Data are mean ± SD of values combined from two independent experiments. * p < 0.05 vs. control (Ctrl); One-way ANOVA with Tukey’s […]

breast cancer cells = test system: breast cancer cells; set-up: method as in PMID 31505772; settings: cited from earlier work
[2] = test system: MNT-1 human melanoma cells; assay: MTS cytotoxicity assay in MNT-1 cells; format: cell-based; settings: 20 µM, 48 h
Procedure: as §1, §2, §3, §4, §5

| Compound | viability at 48 h, 20 µM (MTS cell viability assay; 20 µM) [%] | viability at 48 h, 25 µM (MTS cell viability assay; 25 µM) [%] | melanin inhibition in MNT-1 cells [1] | concentrations highly cytotoxic to breast cancer cells (breast cancer cells) [µM] | cytotoxicity in MNT-1 cells [2] |
| --- | --- | --- | --- | --- | --- |
| COC(=O)/C(C(=O)/C=C/c1ccc(O)cc1)=C(O)\C=C\c1ccc(O)cc1 [CMC2.14] | 72.2 | 55.5 | – | – | – |
| 1,7-bis(4-hydroxy-3-methoxyphenyl)-1,6-heptadien-3,5-dione [PC, reference compound] | – | – | ineffective | > 10 | – |
| O=C(/C=C/c1ccc(O)cc1)/C(C(=O)Nc1ccccc1)=C(O)/C=C/c1ccc(O)cc1 [CMC2.24] | – | – | significant attenuation of melanin levels | – | nontoxic |
